Like-named read-outs stand apart in the source and are kept apart here.

Test in all cases: Kinase selectivity, P33-radiolabeled assay
What all share (type): biochemical
What all share (settings): 10 μM ATP

For assay [1], the target named is T1, BRSK2 (Homo sapiens, UniProt Q8IWQ3).
T1 construct: purchased Reaction Biology Corp
T1 sequence (Q8IWQ3 1-736): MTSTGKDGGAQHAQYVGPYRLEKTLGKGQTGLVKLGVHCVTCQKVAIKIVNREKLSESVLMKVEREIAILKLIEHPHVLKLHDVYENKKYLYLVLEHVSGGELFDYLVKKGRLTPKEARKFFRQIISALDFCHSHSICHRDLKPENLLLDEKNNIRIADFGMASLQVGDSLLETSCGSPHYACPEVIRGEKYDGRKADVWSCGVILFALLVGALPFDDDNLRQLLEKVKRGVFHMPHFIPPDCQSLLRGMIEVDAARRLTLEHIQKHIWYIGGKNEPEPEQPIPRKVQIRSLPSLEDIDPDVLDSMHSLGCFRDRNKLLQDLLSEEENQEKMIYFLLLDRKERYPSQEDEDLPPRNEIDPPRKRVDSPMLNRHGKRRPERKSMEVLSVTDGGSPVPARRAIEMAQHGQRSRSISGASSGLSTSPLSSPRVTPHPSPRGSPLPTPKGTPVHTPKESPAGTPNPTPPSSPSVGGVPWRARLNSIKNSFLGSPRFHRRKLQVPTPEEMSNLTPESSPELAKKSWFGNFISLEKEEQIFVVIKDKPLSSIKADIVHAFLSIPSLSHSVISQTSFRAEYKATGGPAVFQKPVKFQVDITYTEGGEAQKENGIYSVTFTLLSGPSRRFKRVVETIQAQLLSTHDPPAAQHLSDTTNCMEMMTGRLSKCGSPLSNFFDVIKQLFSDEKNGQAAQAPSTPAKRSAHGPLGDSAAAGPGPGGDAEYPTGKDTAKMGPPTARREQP
The essentials:
(§1)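 Values show % enzyme activity normalised to DMSO vehicle. They come from one 10 μM compound concentration run twice, at an ATP level of 10 μM.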

For assay [2], the target named is T2, CAMK1b (Homo sapiens, UniProt Q6P2M8).
T2 construct: purchased Reaction Biology Corp
The essentials: as §1

The target of assay [3] is T3, CLK1 (Homo sapiens, UniProt P49759).
T3 construct: purchased Reaction Biology Corp
The essentials:
as §1

Assay [4] deals with T4, LIMK1 (Homo sapiens, UniProt P53667).
T4 construct: purchased Reaction Biology Corp
The essentials:
as §1

In assay [5] the target is T5, NEK1 (Homo sapiens, UniProt Q96PY6).
T5 construct: purchased Reaction Biology Corp
T5 sequence (Q96PY6 1-1258): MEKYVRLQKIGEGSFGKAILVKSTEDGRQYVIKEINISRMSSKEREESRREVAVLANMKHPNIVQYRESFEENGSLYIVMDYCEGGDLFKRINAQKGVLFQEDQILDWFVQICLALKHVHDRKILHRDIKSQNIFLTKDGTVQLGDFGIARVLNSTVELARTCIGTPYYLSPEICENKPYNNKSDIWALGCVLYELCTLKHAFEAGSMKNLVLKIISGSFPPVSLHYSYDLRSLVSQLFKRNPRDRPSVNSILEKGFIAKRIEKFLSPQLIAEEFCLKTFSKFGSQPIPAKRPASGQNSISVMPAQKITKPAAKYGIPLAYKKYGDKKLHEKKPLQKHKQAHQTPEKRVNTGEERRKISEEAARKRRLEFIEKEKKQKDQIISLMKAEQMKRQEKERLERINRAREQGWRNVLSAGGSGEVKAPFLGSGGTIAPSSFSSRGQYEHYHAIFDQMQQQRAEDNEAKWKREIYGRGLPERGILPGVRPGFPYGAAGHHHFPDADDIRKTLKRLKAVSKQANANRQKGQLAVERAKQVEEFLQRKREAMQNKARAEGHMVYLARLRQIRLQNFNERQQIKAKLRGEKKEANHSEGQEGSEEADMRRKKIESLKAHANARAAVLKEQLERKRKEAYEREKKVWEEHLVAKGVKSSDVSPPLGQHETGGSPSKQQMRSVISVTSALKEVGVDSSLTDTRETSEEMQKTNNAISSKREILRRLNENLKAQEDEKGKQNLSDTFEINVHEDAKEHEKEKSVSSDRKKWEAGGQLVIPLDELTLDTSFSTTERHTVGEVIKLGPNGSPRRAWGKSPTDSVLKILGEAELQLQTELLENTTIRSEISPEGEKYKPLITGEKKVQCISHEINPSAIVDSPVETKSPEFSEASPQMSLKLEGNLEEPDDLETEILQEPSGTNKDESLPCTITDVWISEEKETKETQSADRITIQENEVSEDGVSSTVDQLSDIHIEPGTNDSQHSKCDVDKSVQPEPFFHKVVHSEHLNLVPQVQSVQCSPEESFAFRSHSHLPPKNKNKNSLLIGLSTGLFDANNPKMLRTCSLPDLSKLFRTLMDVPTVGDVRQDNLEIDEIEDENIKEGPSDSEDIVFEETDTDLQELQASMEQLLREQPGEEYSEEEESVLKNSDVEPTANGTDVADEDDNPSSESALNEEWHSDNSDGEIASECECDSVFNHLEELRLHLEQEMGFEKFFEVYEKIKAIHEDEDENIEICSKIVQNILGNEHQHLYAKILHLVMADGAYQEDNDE
The essentials: as §1

The target in assay [6] is T6, p70S6K/RPS6KB1 (Homo sapiens, UniProt P23443).
T6 construct: purchased Reaction Biology Corp
In outline:
as §1

Setting [7] is: read-out: % Enzyme Activity (relative to DMSO controls) AVG.
Where [8] appears, read: read-out: % Enzyme Activity (relative to DMSO controls) Data 1.
Setting [9] is: read-out: % Enzyme Activity (relative to DMSO controls) Data 2.

T4 sequence (P53667 whole entry): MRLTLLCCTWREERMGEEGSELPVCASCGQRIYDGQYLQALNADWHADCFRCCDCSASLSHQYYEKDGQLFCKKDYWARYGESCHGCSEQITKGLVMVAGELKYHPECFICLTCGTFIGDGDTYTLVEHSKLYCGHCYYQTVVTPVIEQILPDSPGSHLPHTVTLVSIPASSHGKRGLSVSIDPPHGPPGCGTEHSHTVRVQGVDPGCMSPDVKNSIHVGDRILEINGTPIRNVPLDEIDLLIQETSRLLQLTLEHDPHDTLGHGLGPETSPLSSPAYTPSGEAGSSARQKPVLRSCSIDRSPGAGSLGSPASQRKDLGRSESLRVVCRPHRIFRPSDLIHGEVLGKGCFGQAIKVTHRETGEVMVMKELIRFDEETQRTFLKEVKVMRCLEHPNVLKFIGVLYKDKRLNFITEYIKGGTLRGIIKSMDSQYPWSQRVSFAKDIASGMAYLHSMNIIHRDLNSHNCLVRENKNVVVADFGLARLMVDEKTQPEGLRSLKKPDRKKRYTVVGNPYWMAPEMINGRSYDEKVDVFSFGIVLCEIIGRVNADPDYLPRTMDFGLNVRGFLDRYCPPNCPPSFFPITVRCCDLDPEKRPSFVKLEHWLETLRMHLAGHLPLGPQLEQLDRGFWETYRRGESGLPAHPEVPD
T2 sequence (Q6P2M8 whole entry): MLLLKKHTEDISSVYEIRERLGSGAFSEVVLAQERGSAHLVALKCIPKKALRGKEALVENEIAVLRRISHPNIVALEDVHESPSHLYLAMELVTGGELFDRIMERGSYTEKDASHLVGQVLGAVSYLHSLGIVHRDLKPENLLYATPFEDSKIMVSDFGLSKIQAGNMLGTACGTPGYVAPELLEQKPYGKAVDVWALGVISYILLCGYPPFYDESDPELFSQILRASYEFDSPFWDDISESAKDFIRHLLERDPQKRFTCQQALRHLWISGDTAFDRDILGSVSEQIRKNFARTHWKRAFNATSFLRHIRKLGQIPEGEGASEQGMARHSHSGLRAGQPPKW
T6 sequence (P23443 whole entry): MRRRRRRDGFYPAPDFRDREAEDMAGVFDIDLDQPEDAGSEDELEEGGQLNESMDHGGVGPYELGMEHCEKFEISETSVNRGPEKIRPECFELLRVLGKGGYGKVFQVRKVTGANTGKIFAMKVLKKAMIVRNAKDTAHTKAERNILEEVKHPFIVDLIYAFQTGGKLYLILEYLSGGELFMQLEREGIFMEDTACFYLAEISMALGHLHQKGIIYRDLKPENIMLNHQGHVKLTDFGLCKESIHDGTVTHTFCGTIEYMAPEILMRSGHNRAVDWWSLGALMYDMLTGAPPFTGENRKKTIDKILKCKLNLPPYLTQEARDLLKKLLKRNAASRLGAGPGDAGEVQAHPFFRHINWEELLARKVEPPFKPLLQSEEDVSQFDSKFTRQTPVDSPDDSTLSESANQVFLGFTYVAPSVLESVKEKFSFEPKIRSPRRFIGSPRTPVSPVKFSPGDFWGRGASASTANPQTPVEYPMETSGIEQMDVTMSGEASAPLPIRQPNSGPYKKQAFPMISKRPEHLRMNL
T3 sequence (P49759 whole entry): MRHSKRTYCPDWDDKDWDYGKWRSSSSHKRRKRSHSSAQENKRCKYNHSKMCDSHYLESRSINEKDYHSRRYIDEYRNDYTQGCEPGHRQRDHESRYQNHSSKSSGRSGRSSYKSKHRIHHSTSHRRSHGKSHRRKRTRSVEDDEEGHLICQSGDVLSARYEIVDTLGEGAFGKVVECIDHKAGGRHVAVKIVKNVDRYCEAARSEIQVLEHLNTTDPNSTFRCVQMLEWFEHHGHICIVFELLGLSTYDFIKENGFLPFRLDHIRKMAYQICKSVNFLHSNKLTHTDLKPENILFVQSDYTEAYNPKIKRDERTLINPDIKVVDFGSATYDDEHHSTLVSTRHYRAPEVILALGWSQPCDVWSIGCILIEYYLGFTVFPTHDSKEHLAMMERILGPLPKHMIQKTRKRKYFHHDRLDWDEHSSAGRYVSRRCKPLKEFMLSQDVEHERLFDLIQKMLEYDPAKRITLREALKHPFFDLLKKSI

Take `CC(C)(C)C(=O)N1N=CC[C@H]1c1ccccc1` [GSK′963]: the remaining activity at 10 µM in assay [1] (setting [7]) was 104%; in assay [1] (setting [8]) it was 109%; in assay [1] (setting [9]), 98.7%; in assay [2] (setting [7]) it was 96.4%; in assay [2] (setting [8]), 97.1%; in assay [2] (setting [9]) it was 95.8%. Besides, the remaining activity at 10 µM turned out to be 107% in assay [3] (setting [7]); 108% in assay [3] (setting [8]); 106% in assay [3] (setting [9]); 113% in assay [4] (setting [7]); 112% in assay [4] (setting [8]); 114% in assay [4] (setting [9]). The remaining activity at 10 µM in assay [5] (setting [7]) amounted to 97.5%; in assay [5] (setting [8]) it was 97.1%; in assay [5] (setting [9]) it was 98%; in assay [6] (setting [7]), 99.1%; in assay [6] (setting [8]), 97.4%; in assay [6] (setting [9]), 101%.
